Source: US8598206B2, “Trypsin-like serine protease inhibitors, and their preparation and use” (The Medicines Company (Leipzig) GmbH, priority 2010, dated 2013)
Where two headings read alike, the source gives them in different places.

Experiments:
[1] = cited from earlier work
[2] = biological target: trypsin; conditions: background; cited from earlier work
[3] = biological target: human Factor Xa (Homo sapiens (Human), UniProt P00742); experiment: Inhibition of human Factor Xa; format: biochemical; conditions: Pefachrome FXa substrate; read-out: h FXa Ki
Chain of human Factor Xa (P00742 235-488): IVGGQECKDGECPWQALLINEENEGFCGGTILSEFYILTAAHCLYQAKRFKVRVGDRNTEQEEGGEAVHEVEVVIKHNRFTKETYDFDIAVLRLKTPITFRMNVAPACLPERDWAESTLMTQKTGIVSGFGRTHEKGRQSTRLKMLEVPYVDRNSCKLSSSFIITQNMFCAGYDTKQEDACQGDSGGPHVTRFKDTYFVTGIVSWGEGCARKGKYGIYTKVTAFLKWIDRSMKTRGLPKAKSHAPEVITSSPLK
Chain of human Factor Xa (P00742 41-179 partner): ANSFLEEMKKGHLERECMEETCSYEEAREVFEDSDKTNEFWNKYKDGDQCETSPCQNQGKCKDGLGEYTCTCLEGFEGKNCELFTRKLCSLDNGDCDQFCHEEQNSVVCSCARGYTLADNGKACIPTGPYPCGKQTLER
Protocol: The inhibitory effect for the individual enzymes was determined in analogy to a previously disclosed method (Stürzebecher et al., J. Med. […] In the case of pseudo-first order kinetics, the reaction rates in the equilibrium state were determined by continuously recording the change in absorbance at 405 nm. […] The Ki values are the average of at least three determinations. Human Factor Xa (h FXa): […]

[4] = biological target: human activated protein C (Homo sapiens (Human), UniProt P04070); experiment: Inhibition of human activated protein C; format: biochemical; conditions: Pefachrome PCa substrate; read-out: h aPC Ki
Chain of human activated protein C (P04070 212-450): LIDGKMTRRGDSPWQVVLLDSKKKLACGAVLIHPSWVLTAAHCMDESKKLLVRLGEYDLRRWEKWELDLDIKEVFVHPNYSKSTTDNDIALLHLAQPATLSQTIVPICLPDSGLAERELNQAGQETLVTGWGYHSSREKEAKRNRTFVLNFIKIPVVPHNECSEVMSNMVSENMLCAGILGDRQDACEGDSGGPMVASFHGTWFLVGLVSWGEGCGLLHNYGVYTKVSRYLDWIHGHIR
Chain of human activated protein C (P04070 43-197 partner): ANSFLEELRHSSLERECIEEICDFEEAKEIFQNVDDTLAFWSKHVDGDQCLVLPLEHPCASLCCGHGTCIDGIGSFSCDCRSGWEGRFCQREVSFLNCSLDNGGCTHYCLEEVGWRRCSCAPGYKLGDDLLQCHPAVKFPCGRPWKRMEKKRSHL
Protocol: (§1) The inhibitory effect for the individual enzymes was determined in analogy to a previously disclosed method (Stürzebecher et al., J. Med. Chem., 40, 3091-3099 (1997)).
(§2) 200 μl of TBS (0.05 M trishydroxymethylaminomethane; 0.154 M NaCl, 2% ethanol, pH 8.0)
(§3) 2 μL of a test compound solution in 50% v/v DMSO/water
(§4) For zero order kinetics, the reaction was stopped after 20 min by adding 15 μl of acetic acid (80% v/v), and the absorption at 405 nm was determined using a Microplate Reader (Multiscan Ascent™, from Thermo). In the case of pseudo-first order kinetics, the reaction rates in the equilibrium state were determined by continuously recording the change in absorbance at 405 nm. The Ki values were calculated by parameter fitting in accordance with the rate equation for competitive inhibition using the GraFit software, version 4. The Ki values are the average of at least three determinations.

[5] = biological target: human activated C1s complement component (Homo sapiens (Human), UniProt P09871); experiment: Inhibition of human C1s; format: biochemical; conditions: S2314 substrate; read-out: h C1s Ki
Chain of human activated C1s complement component (P09871 438-688): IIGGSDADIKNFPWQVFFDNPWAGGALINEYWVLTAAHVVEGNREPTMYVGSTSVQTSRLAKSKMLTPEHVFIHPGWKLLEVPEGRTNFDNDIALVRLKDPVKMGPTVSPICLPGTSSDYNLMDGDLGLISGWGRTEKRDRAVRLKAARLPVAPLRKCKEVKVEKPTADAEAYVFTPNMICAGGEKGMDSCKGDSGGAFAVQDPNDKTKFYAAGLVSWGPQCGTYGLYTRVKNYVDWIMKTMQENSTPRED
Chain of human activated C1s complement component (P09871 16-437 partner): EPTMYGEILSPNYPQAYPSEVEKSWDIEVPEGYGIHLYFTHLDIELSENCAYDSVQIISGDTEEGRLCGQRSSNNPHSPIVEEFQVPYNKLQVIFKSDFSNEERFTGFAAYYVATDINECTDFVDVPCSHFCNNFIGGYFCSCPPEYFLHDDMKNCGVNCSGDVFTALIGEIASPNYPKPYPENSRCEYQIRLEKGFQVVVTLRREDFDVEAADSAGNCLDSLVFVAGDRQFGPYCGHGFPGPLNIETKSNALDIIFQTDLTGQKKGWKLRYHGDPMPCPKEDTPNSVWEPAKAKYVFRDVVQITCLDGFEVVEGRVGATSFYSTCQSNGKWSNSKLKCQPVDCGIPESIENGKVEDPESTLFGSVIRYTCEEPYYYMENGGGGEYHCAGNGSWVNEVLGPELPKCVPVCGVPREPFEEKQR
Protocol: as §1, §2, §3, §4
Subcomponent “s” of Human Complement Component 1 (h C1s): Inhibition of human C1s was determined by the method described in [0092]-[0098] using native human activated C1s complement component from Calbiochem at 29 nM and Val-Ser-Arg-pNA (S2314) at 8 mM, 6 mM, and 4 mM as substrate; results are reported as Ki values (nanomolar).

[6] = biological target: human t-PA (Homo sapiens (Human), UniProt P00750); experiment: Inhibition of human tissue-type plasminogen activator; format: biochemical; conditions: Pefachrome tPA substrate; read-out: h t-PA Ki
Chain of human t-PA (P00750 36-562): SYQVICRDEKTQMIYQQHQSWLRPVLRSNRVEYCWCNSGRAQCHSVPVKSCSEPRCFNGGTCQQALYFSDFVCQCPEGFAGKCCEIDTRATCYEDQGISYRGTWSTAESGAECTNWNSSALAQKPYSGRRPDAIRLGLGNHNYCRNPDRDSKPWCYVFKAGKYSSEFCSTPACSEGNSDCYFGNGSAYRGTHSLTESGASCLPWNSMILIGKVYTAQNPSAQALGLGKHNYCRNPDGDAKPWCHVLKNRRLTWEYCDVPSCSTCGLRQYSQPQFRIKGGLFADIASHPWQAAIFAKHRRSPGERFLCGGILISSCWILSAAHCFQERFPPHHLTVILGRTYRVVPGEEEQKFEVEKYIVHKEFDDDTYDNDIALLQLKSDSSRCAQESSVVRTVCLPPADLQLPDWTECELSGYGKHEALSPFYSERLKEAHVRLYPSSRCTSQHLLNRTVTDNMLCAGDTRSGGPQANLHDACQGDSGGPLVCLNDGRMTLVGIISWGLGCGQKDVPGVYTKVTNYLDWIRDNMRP
Protocol: as §1, §2, §3, §4

[7] = biological target: human Factor XIa (Homo sapiens (Human), UniProt P03951); experiment: Inhibition of human Factor XIa; format: biochemical; conditions: Pefachrome PCa substrate; read-out: h FXIa Ki
Chain of human Factor XIa (P03951 388-625): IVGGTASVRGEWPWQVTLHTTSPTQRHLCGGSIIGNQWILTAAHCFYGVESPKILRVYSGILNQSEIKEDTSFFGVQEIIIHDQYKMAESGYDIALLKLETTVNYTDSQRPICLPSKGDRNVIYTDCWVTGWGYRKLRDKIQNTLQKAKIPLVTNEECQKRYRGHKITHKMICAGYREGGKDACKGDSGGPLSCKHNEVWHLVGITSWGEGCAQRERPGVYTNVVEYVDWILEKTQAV
Chain of human Factor XIa (P03951 19-387 partner): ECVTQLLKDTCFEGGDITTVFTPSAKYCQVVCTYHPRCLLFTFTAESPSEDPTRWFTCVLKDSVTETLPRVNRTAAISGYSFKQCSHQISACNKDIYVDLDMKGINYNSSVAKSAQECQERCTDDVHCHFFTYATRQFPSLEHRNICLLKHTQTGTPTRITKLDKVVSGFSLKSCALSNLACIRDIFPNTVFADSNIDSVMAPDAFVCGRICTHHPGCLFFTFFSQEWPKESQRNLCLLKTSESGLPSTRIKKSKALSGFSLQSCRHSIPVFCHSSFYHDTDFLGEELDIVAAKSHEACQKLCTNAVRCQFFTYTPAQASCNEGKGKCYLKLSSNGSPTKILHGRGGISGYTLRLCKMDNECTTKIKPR
Protocol: as §1, §2, §3, §4

[8] = biological target: human urinary kallikrein (Homo sapiens (Human), UniProt P06870); experiment: Inhibition of human urinary kallikrein; format: biochemical; conditions: S-2266 substrate; read-out: h uKK Ki
Chain of human urinary kallikrein (P06870 25-262): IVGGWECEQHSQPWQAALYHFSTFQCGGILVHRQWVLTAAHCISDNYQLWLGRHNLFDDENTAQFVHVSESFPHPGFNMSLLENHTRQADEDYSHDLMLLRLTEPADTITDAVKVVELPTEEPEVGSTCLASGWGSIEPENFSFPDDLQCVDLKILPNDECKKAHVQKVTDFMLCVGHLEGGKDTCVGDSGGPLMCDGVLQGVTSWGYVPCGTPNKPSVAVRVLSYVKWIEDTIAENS
Protocol: as §1, §2, §3, §4

[9] = biological target: T1, plasmin (Homo sapiens (Human), UniProt P00747); experiment: Determination of inhibition constants for human plasmin (chromogenic substrate); format: biochemical; conditions: 25° C., Chromozym PL substrate; read-out: h plasmin Ki
Protocol: (§5) Determination of the Inhibition Constants for Human Plasmin (h Plasmin) and Human Plasma Kallikrein (h PK)
as §1, §2
(§6) 25 μl of substrate (4 mM, 2 mM and 1 mM tosyl-Gly-Pro-Lys-pNA=Chromozym PL from LOXO for plasmin and 3 mM, 1.5 mM and 1 mM H-D-Pro-Phe-Arg-pNA=S2302 from Chromogenix for PK, dissolved in H2O)
as §3
(§7) 50 μl of enzyme solution (plasmin from Calbiochem: 1.7 mU/ml in 0.154 M NaCl+0.1% BSA m/v; plasma kallikrein from Enzyme Research Lab.: 62 ng/ml in 0.154 M NaCl+0.1% BSA m/v)
as §4
Target sequence in this assay (P00747 581-810): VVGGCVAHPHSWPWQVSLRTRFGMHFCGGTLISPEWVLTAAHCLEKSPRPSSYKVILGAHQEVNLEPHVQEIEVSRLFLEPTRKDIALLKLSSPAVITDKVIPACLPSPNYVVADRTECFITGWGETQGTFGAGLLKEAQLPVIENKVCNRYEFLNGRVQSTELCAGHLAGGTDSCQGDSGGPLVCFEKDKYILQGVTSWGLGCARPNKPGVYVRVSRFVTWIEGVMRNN
Target sequence in this assay (P00747 97-580 partner): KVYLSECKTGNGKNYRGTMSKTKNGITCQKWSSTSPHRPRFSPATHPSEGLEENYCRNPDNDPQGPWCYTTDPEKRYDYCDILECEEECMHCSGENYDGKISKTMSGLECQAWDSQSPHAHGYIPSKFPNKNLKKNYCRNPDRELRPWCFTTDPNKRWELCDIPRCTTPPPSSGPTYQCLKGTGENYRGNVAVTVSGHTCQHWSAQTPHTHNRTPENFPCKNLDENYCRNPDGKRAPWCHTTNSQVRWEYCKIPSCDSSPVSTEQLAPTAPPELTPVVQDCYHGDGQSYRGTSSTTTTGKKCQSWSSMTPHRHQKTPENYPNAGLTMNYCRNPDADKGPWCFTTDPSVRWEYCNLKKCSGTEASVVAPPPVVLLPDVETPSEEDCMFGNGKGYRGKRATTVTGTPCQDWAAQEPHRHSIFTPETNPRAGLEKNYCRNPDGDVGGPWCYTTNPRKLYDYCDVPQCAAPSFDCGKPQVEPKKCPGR

[10] = biological target: human alpha-FXIIa (Homo sapiens (Human), UniProt P00748); experiment: Inhibition of human alpha-Factor XIIa; format: biochemical; conditions: CHA-Gly-Arg-pNA substrate; read-out: h FXIIa Ki
Chain of human alpha-FXIIa (P00748 373-615): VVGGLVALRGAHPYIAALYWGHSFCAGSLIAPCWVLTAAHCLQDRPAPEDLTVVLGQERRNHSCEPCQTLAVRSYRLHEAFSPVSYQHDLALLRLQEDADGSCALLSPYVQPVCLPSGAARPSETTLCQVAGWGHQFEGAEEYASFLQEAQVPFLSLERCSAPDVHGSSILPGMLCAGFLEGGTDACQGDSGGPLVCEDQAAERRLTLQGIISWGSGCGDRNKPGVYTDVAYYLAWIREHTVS
Chain of human alpha-FXIIa (P00748 20-372 partner): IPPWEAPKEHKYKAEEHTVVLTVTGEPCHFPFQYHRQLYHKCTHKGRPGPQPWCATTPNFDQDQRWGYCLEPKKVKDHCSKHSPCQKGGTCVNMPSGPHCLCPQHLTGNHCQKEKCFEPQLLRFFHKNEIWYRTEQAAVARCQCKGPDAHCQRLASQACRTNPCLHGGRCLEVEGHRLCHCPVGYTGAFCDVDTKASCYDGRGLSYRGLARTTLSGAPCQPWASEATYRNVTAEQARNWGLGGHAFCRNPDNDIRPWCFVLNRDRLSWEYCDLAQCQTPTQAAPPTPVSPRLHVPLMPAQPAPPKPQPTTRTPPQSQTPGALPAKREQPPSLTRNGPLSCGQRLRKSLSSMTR
Protocol: as §1, §2, §3, §4

[11] = biological target: plasma kallikrein (Homo sapiens (Human), UniProt P03952); experiment: Determination of inhibition constants for human plasma kallikrein (chromogenic substrate); format: biochemical; conditions: 25° C., S2302 substrate; read-out: h PK Ki
Chain of plasma kallikrein (P03952 391-638): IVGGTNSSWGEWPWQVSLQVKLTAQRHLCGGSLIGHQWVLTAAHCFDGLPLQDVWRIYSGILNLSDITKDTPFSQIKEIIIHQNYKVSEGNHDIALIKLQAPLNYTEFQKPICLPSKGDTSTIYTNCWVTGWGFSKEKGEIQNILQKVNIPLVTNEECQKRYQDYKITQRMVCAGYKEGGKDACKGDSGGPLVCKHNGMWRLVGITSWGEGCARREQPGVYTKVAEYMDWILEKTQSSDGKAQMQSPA
Chain of plasma kallikrein (P03952 20-390 partner): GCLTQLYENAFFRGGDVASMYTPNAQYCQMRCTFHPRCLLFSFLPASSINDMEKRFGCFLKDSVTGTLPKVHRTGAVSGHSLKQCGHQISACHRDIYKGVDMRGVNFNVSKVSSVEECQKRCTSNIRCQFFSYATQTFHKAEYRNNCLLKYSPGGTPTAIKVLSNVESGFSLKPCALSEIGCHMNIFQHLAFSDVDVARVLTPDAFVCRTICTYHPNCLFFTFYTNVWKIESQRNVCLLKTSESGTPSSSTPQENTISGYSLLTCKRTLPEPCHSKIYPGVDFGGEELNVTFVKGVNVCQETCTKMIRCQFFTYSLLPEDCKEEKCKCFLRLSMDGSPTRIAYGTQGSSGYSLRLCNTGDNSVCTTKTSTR
Protocol: as §5, §1, §2, §6, §3, §7, §4

[12] = biological target: human alpha-thrombin (Homo sapiens (Human), UniProt P00734); experiment: Inhibition of human Factor IIa; format: biochemical; conditions: Pefachrome tPA substrate; read-out: h FIIa Ki
Protocol: as §1, §2, §3, §4

[13] = biological target: human activated C1r complement component (Homo sapiens (Human), UniProt P00736); experiment: Inhibition of human C1r; format: biochemical; conditions: S2314 substrate; read-out: h C1r Ki
Protocol: as §1, §2, §3, §4

[14] = biological target: T1, plasmin; conditions: background literature; read-out: Ki / inhibition constant for plasmin; cited from earlier work

| Compound | Ki [3] [nM] | Ki [4] [nM] | Ki [5] [nM] | Ki [6] [nM] | Ki [7] [nM] | Ki [8] [nM] | Ki [9] [nM] | Ki [10] [nM] | Ki [11] [nM] | Ki [12] [nM] | Ki [13] [nM] | risk of anaphylactic shock ([1]; first administration) [%] | risk of anaphylactic shock ([1]; repeated administration within 200 days) | Ki [2] [nM] | Ki [14] [nM] |
| --- | --- | --- | --- | --- | --- | --- | --- | --- | --- | --- | --- | --- | --- | --- | --- |
| aprotinin |  |  |  |  |  |  |  |  |  |  |  | < 0.1 | 4-5% | 0.1 |  |
| N=C(N)c1ccc(CNC(=O)[C@H](CCC2CCNCC2)NC(=O)[C@@H](CCCc2cc[n+]([O-])cc2)NS(=O)(=O)Cc2ccccc2)cc1 [drawing 123] | 400 | 850 | 9500 | 2400 | 1400 | > 200000 | 1 | 870 | 4 | 4900 | > 30000 |  |  |  |  |
| N=C(N)c1ccc(CNC(=O)[C@@H]2CCN2C(=O)[C@H](NCC(=O)O)C2CCCCC2)cc1 [melagatran] |  |  |  |  |  |  |  |  |  |  |  |  |  |  | 700 |
| N=C(N)c1ccc(CNC(=O)[C@H](CCC2CCNCC2)NC(=O)[C@@H](CCC2CCN(C(=O)C3CC3)CC2)NS(=O)(=O)Cc2ccccc2)cc1 | 2300 | 1500 | 19000 | 6100 | 650 | > 50000 | 0.6 | 1100 | 0.3 | 8500 | > 50000 |  |  |  |  |

More lines, main results first:

| Ki [3] [nM] | Ki [4] [nM] | Ki [5] [nM] | Ki [6] [nM] | Ki [7] [nM] | Ki [8] [nM] | Ki [9] [nM] | Ki [10] [nM] | Ki [11] [nM] | Ki [12] [nM] | Ki [13] [nM] | Compound | risk of anaphylactic shock ([1]; first administration) [%] | risk of anaphylactic shock ([1]; repeated administration within 200 days) | Ki [2] [nM] | Ki [14] [nM] |
| --- | --- | --- | --- | --- | --- | --- | --- | --- | --- | --- | --- | --- | --- | --- | --- |
| 2500 | 1600 | 13000 | 8300 | 1500 | > 200000 | 0.8 | 2000 | 4 | 13000 | > 50000 | CN(C)C(=O)N1CCC(CC[C@@H](NS(=O)(=O)Cc2ccccc2)C(=O)N[C@@H](CCC2CCNCC2)C(=O)NCc2ccc(C(=N)N)cc2)CC1 |  |  |  |  |
| 2200 | 1100 | > 10000 | 6100 | 870 | > 200000 | 0.6 | 800 | 2 | 5500 | > 15000 | CCCC(=O)N1CCC(CC[C@@H](NS(=O)(=O)Cc2ccccc2)C(=O)N[C@@H](CCC2CCNCC2)C(=O)NCc2ccc(C(=N)N)cc2)CC1 |  |  |  |  |
